# Laboratory results from patent US8158623B2, “Heptacyclic compounds and the pharmaceutical uses thereof for preventing and treating diabetes and metabolic syndrome” (Shanghai Institute of Materia Medica Chinese Academy of …, priority 2007, dated 2012).
# Experiments:
# [1] = test system: ob/ob mice; assay: Hypoglycemic effect of the combination of F7 with Glibenclamide; format: in vivo; details: Glibenclamide 25 mg/kg oral, with or without F7 50 mg/kg oral pretreatment for 10 days
# Procedure: (§1) Genetic spontaneous diabetes ob/ob mice were purchased from Jackson (USA), and maintained in a SPF facility (temperature: 22-24° C., humidity: 45-80%, illumination: 150-300 Lx, 12/12-hour light/dark cycle). Fasting blood glucose was determined daily for 3 days continuously when the mice were 7 weeks old. The mice were grouped into the pretreatment group of Compound F7 and non-pretreatment group (16 animals per group) according to the results determined. The groups were administered orally with compound F7 (50 mg/kg) or a solution of 0.1% Tween 80 respectively, once daily for 10 days. The pretreatment group and the non-pretreatment group were divided into two subsets (8 animals per subset) respectively, and subcutaneously injected with insulin (0.6 U/kg) or orally administered with Glibenclamide (25 mg/kg) respectively. Then, blood glucose levels were measured at different time points and the percentage of change in blood glucose level was calculated.
# [2] = test system: ob/ob mice; assay: Hypoglycemic effect of the combination of F7 with insulin; format: in vivo; details: insulin 0.6 U/kg s.c., with or without F7 50 mg/kg oral pretreatment for 10 days
# Procedure: as §1
Molecule,The percentage of change in blood glucose level ([1]; 1 h) [%],The percentage of change in blood glucose level ([1]; 2 h) [%],The percentage of change in blood glucose level ([1]; 3 h) [%],The percentage of change in blood glucose level ([2]; 15 minutes) [%],The percentage of change in blood glucose level ([2]; 40 minutes) [%],The percentage of change in blood glucose level ([2]; 90 minutes) [%],The percentage of change in blood glucose level ([2]; 120 minutes) [%]
COc1ccc(Cl)cc1C(=O)NCCc1ccc(S(=O)(=O)NC(=O)NC2CCCCC2)cc1 [Glibenclamide],90.2 ± 7.3,76.7 ± 10.2,68.0 ± 7.3,,,,
Insulin,,,,113.9 ± 8.3,96.3 ± 18.0,90.6 ± 14.7,101.6 ± 11.2
